Patent US10588897B2 (priority 2013, dated 2020)
Like-named read-outs stand apart in the source and are kept apart here.

Assays:
E. coli = details: found by Kimura et al.; cited from earlier work
[1] = tested on: Y. pseudotuberculosis T3SS (YopE secretion); assay type: cell-based, Yersinia pseudotuberculosis
[2] = tested on: Escherichia coli type III secretion; details: literature; cited from earlier work
[3] = tested on: Yersinia pestis type III secretion; details: cited from earlier work
[4] = tested on: Y. pseudotuberculosis T3SS; assay type: cell-based, Yersinia pseudotuberculosis
[5] = tested on: wildtype Y. pseudotuberculosis IP2666; assay type: cell-based, Yersinia pseudotuberculosis

Compound: C/C=C\C=C\[C@@H]1O[C@](O)([C@H](CC)C(=O)NC/C=C/C=C(\C)[C@@H](OC)[C@@H](C)[C@@H]2O[C@H](/C=C/C=C/C=C(\C)C(=O)c3c(O)ccn(C)c3=O)[C@H](O)[C@@H]2O)[C@H](O)[C@H](O)C1(C)C [Aurodox]
- concentrations cytotoxic to E. coli (E. coli): above 12.5 μM
- inhibition of YopE secretion ([1]; 12.5 μM, highest concentration used): did not significantly inhibit
- in vitro type III secretion by Escherichia coli [2]: reduce

Compound: CC(Oc1ccc(Cl)cc1Cl)C(=O)NCc1ccc2c(c1)OCO2 (stereo not drawn) [MBX 1641]
- in vitro type III secretion by Yersinia pestis [3]: reduce

Compound: C/C=C(\C)[C@H](O)[C@H](C)/C=C(C)/C=C/C/C(C)=C/Cc1nc(OC)cc(O)c1C [Mer-A 2026B]
- inhibition of YopE secretion at lower concentrations [1]: dose dependent decrease in inhibition
- reduction of secretion of the T3SS effector YopE [1]: 45%
- YopM translocation into CHO cells [4]: significantly reduced
- T3SS inhibition (YopM translocation into CHO cells) ([4]; 71 µM): 75%
- Y. pseudotuberculosis in vitro growth (OD600 compound-treated/OD600 DMSO-treated) [5]: do not affect
- Yersinia growth by optical density [5]: did not inhibit

Compound: C/C=C(\C)[C@H](O)[C@H](C)/C=C(C)/C=C/C/C(C)=C/Cc1nc(OC)c(OC)c(O)c1C [Piericidin A1]
- reduction of secretion of the T3SS effector YopE ([1]; 71 μM, 2 hours at 37° C., relative to DMSO): 65%
- YopM-β-lactamase translocation ([4]; concentrations of 36 μM and greater): significantly diminished
- Y. pseudotuberculosis in vitro growth (OD600 compound-treated/OD600 DMSO-treated) ([5]; 143 μM, 23° C., continuous shaking): do not affect
- Y. pseudotuberculosis in vitro growth (OD600 compound-treated/OD600 DMSO-treated) ([5]; 143 μM, 37° C., continuous shaking): do not affect
- Yersinia growth by optical density ([5]; 26° C. and 37° C., all tested concentrations up to 143 μM): did not inhibit
